Laboratory results as given in patent US20100292185A1, “BETA-LACTAMASE INHIBITORS” (priority 2009, published 2010).
pIC50: −log10 of the molar value. Structures can show the parent of a compound that is named as a salt.

How the values were obtained:
[1] = biological target: T1, SHV-5 β-lactamase (Klebsiella pneumoniae, UniProt P0A3M1); assay: β-lactamase enzyme inhibition assay (nitrocefin substrate), SHV-5; assay type: biochemical
T1 construct: expressed as native untagged proteins; made in house; host or cells: E. coli BL21(DE3)
Summary of the method: (§1)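 Read-out: kinetic A486 over 10 min after adding nitrocefin at 100 μM final. Before substrate addition, enzyme and inhibitor (100–0.005 μM, PBS pH 7.0) sat together for 10 min at 37 °C. IC50 is the concentration halving the initial hydrolysis rate versus no-inhibitor wells.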

[2] = biological target: T2, CTX-M15 β-lactamase (Escherichia coli, UniProt Q9EXV5); assay: β-lactamase enzyme inhibition assay (nitrocefin substrate), CTXM-15; assay type: biochemical
T2 construct: expressed as native untagged proteins; made in house; host or cells: E. coli BL21(DE3)
Summary of the method: as §1

[3] = biological target: T3, p99 AmpC β-lactamase (Enterobacter cloacae, UniProt P05364); assay: β-lactamase enzyme inhibition assay (nitrocefin substrate), P99 AmpC; assay type: biochemical; conditions: nitrocefin 100 μM, 37° C., PBS pH 7.0; read-out: P99 AmpC IC50
T3 construct: expressed as native untagged proteins; made in house; host or cells: E. coli BL21(DE3)
Summary of the method: as §1

[4] = biological target: T4, KPC-2 β-lactamase (Klebsiella pneumoniae, UniProt Q9F663); assay: β-lactamase enzyme inhibition assay (nitrocefin substrate), KPC-2; assay type: biochemical
T4 construct: expressed as native untagged proteins; made in house; host or cells: E. coli BL21(DE3)
Summary of the method: as §1

[5] = biological target: T5, VIM-2 metallo β-lactamase (Pseudomonas aeruginosa, UniProt Q9K2N0); assay: β-lactamase enzyme inhibition assay (nitrocefin substrate), VIM-2; assay type: biochemical; conditions: nitrocefin 100 μM, 37° C., PBS pH 7.0; read-out: VIM-2 IC50
T5 construct: made in house
Summary of the method: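 VIM-2 was expressed untagged in E. coli BL21(DE3) and purified by two Q sepharose anion-exchange runs plus gel filtration to >90% purity. Compounds at 100–0.005 μM in PBS pH 7.0 were preincubated with enzyme for 10 min at 37° C, then nitrocefin was added at 100 μM final. Hydrolysis was followed kinetically at 486 nm for 10 min; IC50 is the concentration halving the initial rate relative to no-inhibitor wells.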

[6] = biological target: T6, OXA-23 β-lactamase (Acinetobacter baumannii, UniProt Q9L4P2); assay: β-lactamase enzyme inhibition assay (nitrocefin substrate), OXA-23 crude extract; assay type: biochemical; conditions: nitrocefin 100 μM, 37° C., PBS pH 7.0; read-out: OXA-23 IC50
T6 construct: crude β-lactamase extracts were prepared from 20 ml overnight cultures; endogenous in cells; host or cells: Acinetobacter baumannii cells containing OXA-23 (crude freeze-thaw extract)
Summary of the method: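 Crude enzyme came from freeze-thaw extracts of mid-log OXA-23-carrying A. baumannii grown in MH-II broth at 37° C. Inhibitors (100–0.005 μM in PBS pH 7.0) were preincubated with the enzyme for 10 min at 37° C, then 100 μM nitrocefin (final) was added and read kinetically at 486 nm for 10 min. IC50 was taken from initial hydrolysis rates relative to uninhibited controls.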

[7] = system: E. coli expressing the Class A ESBL SHV-5; assay: In vitro antibacterial assay of β-lactamase inhibition (broth microdilution MIC), E. coli SHV-5; assay type: cell-based; conditions: in presence of Ceftazidime 8 μg/ml (Examples 1-56)
Summary of the method: (§2)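 Broth microdilution in cation-adjusted Mueller Hinton broth; strains pre-grown 3–5 h with 50 μg/mL ampicillin. Test compounds 2-fold serially diluted to a final 8–0.015 μg/mL alongside a β-lactam, CLSI inoculum. MIC read visually after 16–20 h at 37° C.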

[8] = system: K. pneumoniae expressing the Class A Extended Spectrum Beta-Lactamase (ESBL) CTX-M-15; assay: In vitro antibacterial assay of β-lactamase inhibition (broth microdilution MIC), K. pneumoniae CTX-M-15; assay type: cell-based; conditions: in presence of Ceftazidime 8 μg/ml (Examples 1-56)
Summary of the method: as §2

[9] = system: E. cloacae expressing the Class C P99+; assay: In vitro antibacterial assay of β-lactamase inhibition (broth microdilution MIC), E. cloacae P99+; assay type: cell-based; conditions: in presence of Ceftazidime 8 μg/ml (Examples 1-56)
Summary of the method: as §2

[10] = system: K. pneumoniae expressing the Class A carbapenemase KPC-2; assay: microbe, parasite or virus in culture; assay type: cell-based; conditions: in presence of Ceftazidime 8 μg/ml (Examples 1-56)
Summary of the method: as §2

[11] = system: P. aeruginosa expressing the Class B metallo β-lactamase VIM-2; assay: In vitro antibacterial assay of β-lactamase inhibition (broth microdilution MIC), P. aeruginosa VIM-2; assay type: cell-based; conditions: in presence of Ceftazidime 16 μg/mL (Examples 1-56)
Summary of the method: as §2

T6 sequence (Q9L4P2 18-273): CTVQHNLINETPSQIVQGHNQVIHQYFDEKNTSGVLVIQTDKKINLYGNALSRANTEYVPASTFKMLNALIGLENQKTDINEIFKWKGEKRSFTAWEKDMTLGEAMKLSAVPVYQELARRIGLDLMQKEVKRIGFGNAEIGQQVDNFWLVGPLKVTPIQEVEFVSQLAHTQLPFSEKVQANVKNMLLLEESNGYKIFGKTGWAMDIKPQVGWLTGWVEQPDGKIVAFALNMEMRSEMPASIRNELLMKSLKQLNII
T3 sequence (P05364 21-381): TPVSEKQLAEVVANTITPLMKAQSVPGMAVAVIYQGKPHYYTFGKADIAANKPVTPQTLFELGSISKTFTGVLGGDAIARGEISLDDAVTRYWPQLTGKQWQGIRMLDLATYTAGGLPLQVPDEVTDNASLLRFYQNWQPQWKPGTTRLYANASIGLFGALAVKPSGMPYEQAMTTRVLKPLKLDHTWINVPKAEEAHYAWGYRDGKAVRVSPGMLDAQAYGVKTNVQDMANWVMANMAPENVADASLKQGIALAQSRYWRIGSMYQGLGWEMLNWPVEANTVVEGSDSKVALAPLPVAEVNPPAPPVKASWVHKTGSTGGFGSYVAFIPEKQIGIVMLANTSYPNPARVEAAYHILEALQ
T1 sequence (P0A3M1 22-286): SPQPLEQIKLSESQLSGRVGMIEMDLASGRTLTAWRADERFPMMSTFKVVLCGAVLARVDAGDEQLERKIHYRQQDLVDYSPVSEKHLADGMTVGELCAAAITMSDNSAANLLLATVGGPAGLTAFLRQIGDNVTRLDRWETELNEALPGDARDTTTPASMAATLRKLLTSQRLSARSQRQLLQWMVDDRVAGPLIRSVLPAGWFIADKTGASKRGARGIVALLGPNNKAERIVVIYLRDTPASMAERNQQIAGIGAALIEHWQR
T2 sequence (Q9EXV5 entry or part of it): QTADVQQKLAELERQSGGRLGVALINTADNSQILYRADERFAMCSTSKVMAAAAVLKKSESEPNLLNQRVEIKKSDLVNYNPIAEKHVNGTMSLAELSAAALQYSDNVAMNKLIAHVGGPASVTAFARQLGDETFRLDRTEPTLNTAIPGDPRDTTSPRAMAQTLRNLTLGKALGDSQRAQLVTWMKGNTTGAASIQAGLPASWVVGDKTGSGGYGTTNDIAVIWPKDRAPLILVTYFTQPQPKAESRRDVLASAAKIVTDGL
T4 sequence (Q9F663 25-293 limits assumed): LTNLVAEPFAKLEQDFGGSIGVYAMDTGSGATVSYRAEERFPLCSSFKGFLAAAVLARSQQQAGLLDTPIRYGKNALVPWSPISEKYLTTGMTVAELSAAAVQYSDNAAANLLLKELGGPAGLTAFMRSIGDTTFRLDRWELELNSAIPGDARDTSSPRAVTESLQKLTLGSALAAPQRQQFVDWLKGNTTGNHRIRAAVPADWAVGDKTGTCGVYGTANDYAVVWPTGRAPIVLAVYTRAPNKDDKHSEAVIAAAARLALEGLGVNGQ

SMILES	pIC50 [1]	pIC50 [2]	pIC50 [3]	pIC50 [4]	pIC50 [5]	pIC50 [6]	MIC of example compound, E. coli SHV-5 [7] [µg/mL]	MIC of example compound, K. pneumoniae CTX-M-15 [8] [µg/mL]	MIC of example compound, E. cloacae P99+ [9] [µg/mL]	MIC of example compound, K. pneumoniae KPC-2 [10] [µg/mL]	MIC of example compound, P. aeruginosa VIM-2 [11] [µg/mL]
O=C(Cc1ccc(CNCCO)cc1)N[C@@H](Cc1cccc(C(=O)O)c1O)B(O)O [Example 34, (1R)-[2-{4-((2-hydroxy-ethylamino)-methyl)-phenyl}-acetylamino]-(3-carboxy-2hydroxy)benzyl-methylboronic acid formate]	8.30	8.15	8.40	7.74	6.24	6.59	0.5	0.12	0.5	0.03	>8
O=C(N[C@@H](Cc1cccc(C(=O)O)c1O)B(O)O)c1cccc(CNc2nccs2)c1 [Example 31, (1R)-[3-(thiazol-2-ylaminomethyl)-benzoylamino]-(3-carboxy-2-hydroxy)benzyl-methylboronic acid]	7.89	9.30	9.22	8.52	6.53	8.00	8	4	2	0.25	>8
O=C(N[C@@H](Cc1cccc(C(=O)O)c1O)B(O)O)c1cccc(CNCc2cccnc2)c1 [Example 19, (1R)-(3-{[(pyridin-3-ylmethyl)amino]methyl}-benzoylamino)-(3-carboxy-2-hydroxy)benzyl-methylboronic acid formate]	7.27	9.00	9.70	8.22	6.29	7.72	8	2	2	0.12	>8
O=C(N[C@@H](Cc1cccc(C(=O)O)c1O)B(O)O)c1cccc(CN2CCNCC2)c1 [Example 20, (1R)-(3-piperazin-1-ylmethyl-benzoylamino-(3-carboxy-2-hydroxy)benzyl-methylboronic acid formate]	7.38	7.70	9.52	8.05	6.75	7.66	4	1	2	0.03	>8
